One data set addresses T1, Bcl-2 protein (Homo sapiens, UniProt P10415, DELINS35-91DVEENRTEAPEGTESE, form not given).
T1 construct: fused on or other part: A short piece of the Bcl-xL (Q07817) loop replaces Bcl-2 loop residues 35-91; The C-terminal membrane anchor is absent
The data set can be described thus: Bcl-2 binding affinity, fluorescence polarization with fluorescein-labeled BAX peptide. As to conditions: Wang's equation, read-out: Target Binding Affinity Ki (Bcl-2).

A further data set has as its target Bcl-XL protein (Homo sapiens, UniProt Q07817). The data set can be described thus: Bcl-XL binding affinity, fluorescence polarization with fluorescein-labeled BAD peptide. As to conditions: Wang's equation, read-out: Target Binding Affinity Ki (Bcl-XL).
Data set [1] relates to NCI-H146 human small cell lung carcinoma cells. The experiment in a line: Cellular efficacy in human tumor cell line (MTS viability assay). It counts as cell-based. As to conditions: NCI-H146, 10% human serum, 48 hours. An outline of the steps:
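Cells plated at 50,000/well in medium with 10% human serum in place of FBS. Treated with 2-fold serial dilutions from 10 μM to 0.020 μM, in duplicate, at least 3 separate runs. Viable cells measured by MTS after 48 h of compound exposure.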

Data set [2] can be described thus: Pharmacokinetic evaluation in rat. It counts as in vivo. The following applies: male, Sprague-Dawley, plasma; for AUC(0-inf): single 5 mg/kg oral dose, Table 1, read-out: Pharmacokinetic area under the plasma concentration Curve (rat) AUC0-∞; for AUC / Cmax: 5 mg/kg, oral. An outline of the steps:
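Male Sprague-Dawley rats (n=3/group) received a single 2 mg/kg IV (jugular slow bolus) or 5 mg/kg oral gavage dose in 10% DMSO/PEG-400; tail-vein plasma sampled to 24 h. Acetonitrile-precipitated plasma quantified by LC-MS/MS (LOQ 0.01 μg/mL); AUC0-∞ by linear trapezoidal rule plus Ct/β extrapolation.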

Setting [3] is: Table 1, read-out: NCI-H146 Cellular Efficacy EC50.
The mark [4] stands for this setting: Table 2, read-out: NCI-H146 Cellular Efficacy H146, EC50.
The mark [5] stands for this setting: Table 2, read-out: Pharmacokinetic area under the plasma concentration curve (rat) AUC.
[6] abbreviates: Table 2, read-out: Pharmacokinetic peak plasma concentration (rat) Cmax.
Setting [7] is: Table 3, read-out: NCI-H146 Cellular Efficacy H146 EC50.
[8] abbreviates: Table 3, read-out: Pharmacokinetic area under the plasma concentration Curve (rat) AUC.
[9] abbreviates: Table 3, read-out: Pharmacokinetic peak plasma concentration (rat) Cmax.

Where two headings read alike, the source gives them in different places. Bounds are passed on as bounds.

Sequence of Bcl-XL protein (Q07817 with tags, fused parts or gaps DEL45-84): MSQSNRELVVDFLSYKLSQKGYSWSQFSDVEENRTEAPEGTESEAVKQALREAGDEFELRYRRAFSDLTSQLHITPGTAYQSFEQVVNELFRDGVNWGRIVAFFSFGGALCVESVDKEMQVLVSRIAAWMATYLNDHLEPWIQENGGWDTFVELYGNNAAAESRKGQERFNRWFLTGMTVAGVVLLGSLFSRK
T1 sequence (P10415 with tags, fused parts or gaps with the stated changes): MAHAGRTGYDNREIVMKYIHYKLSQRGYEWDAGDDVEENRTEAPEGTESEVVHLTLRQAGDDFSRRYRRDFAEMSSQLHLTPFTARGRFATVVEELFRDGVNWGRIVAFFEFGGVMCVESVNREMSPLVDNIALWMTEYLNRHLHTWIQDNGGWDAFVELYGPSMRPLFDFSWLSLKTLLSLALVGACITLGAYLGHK
Method for Bcl-2 protein: Binding affinity of compounds having formula (II) to Bcl-2 protein is indicia of their inhibition of the activity of this protein.
(§1) Ki values shown in the tables below were determined using Wang's equation (Wang Z X., An Exact Mathematical Expression For Describing Competitive Binding Of Two Different Ligands To A Protein Molecule. FEBS Lett. 1995; 360:111-4)).
Method for Bcl-XL protein: A mixture comprising 125 μL per well of assay buffer (20 mM phosphate buffer (pH 7.4), 1 mM EDTA, 50 mM NaCl, 0.05% PF-68), 6 nM of Bcl-XL protein (prepared as described in Science 1997, 275, 983-986), 1 nM fluorescein-labeled BAD peptide (prepared in-house) and the DMSO solution of the compound was shaken for 2 minutes and placed in a LJL Analyst (LJL Bio Systems, CA). A negative control (DMSO, 15 nM BAD peptide, assay buffer) and a positive control (DMSO, 1 nM BAD peptide, 6 nM Bcl-XL, assay buffer) were used to determine the range of the assay. Polarization was measured at room temperature using a continuous Fluorescein lamp (excitation 485 nm, emission 530 nm). Percentage of inhibition was determined by (1-((mP value of well-negative control)/range))×100%.
as §1

Turning to `CN(C)CC[C@H](CSc1ccccc1)Nc1ccc(S(=O)(=O)NC(=O)c2ccc(N3CCN(CC4=C(c5ccc(Cl)cc5)CCC(C)(C)C4)CC3)cc2)cc1S(=O)(=O)C(F)(F)F` [Example 20, N-(4-(4-((2-(4-chlorophenyl)-5,5-dimethyl-1-cyclohex-1-en-1-yl)methyl)piperazin-1-yl)benzoyl)-4-(((1R)-3-(dimethylamino)-1-((phenylsulfanyl)methyl)propyl)amino)-3-((trifluoromethyl)sulfonyl)benzenesulfonamide], the Ki on Bcl-2 protein and on Bcl-XL protein was not above 1 nM throughout. The EC50 in data set [1] (setting [3]) was 27.7 nM. Moreover, in data set [2], the AUC(0-inf) came to 3.11 µM·h.
Take `CC1(C)CCC(c2ccc(Cl)cc2)=C(CN2CCN(c3ccc(C(=O)NS(=O)(=O)c4ccc(N[C@H](CCN5CCCC5)CSc5ccccc5)c(S(=O)(=O)C(F)(F)Cl)c4)cc3)CC2)C1` [Example 30, 3-((chloro(difluoro)methyl)sulfonyl)-N-(4-(4-((2-(4-chlorophenyl)-5,5-dimethylcyclohex-1-en-1-yl)methyl)piperazin-1-yl)benzoyl)-4-(((1R)-1-((phenylsulfanyl)methyl)-3-(pyrrolidin-1-yl)propyl)amino)benzenesulfonamide]: the Ki at Bcl-2 protein and at Bcl-XL protein was not above 1 nM in each case. In data set [1] (setting [3]), the EC50 turned out to be 31.7 nM. Moreover, the AUC(0-inf) in data set [2] turned out to be 3.39 µM·h.
On to `O=C(NS(=O)(=O)c1ccc(N[C@H](CCN2CCOCC2)CSc2ccccc2)c(S(=O)(=O)C(F)(F)F)c1)c1ccc(N2CCN(Cc3ccccc3-c3ccc(Cl)cc3)CC2)cc1` [Example 39, N-(4-(4-((4′-chloro(1,1′-biphenyl)-2-yl)methyl)-1-piperazinyl)benzoyl)-4-(((1R)-3-(4-morpholinyl)-1-((phenylsulfanyl)methyl)propyl)amino)-3-((trifluoromethyl)sulfonyl)benzenesulfonamide], for which the Ki at Bcl-2 protein and on Bcl-XL protein was not above 1 nM in each case. Moreover, the EC50 in data set [1] (setting [3]) came out at 82.7 nM; in data set [1] (setting [4]) it was 83 nM. Further, the AUC in data set [2] (setting [5]) stood at 1.66 µM·h. Further, the Cmax in data set [2] (setting [6]) was 290 nM. For the same compound, the AUC(0-inf) in data set [2] was 1.66 µM·h.
Turning to `CN(C)CC[C@H](CSc1ccccc1)Nc1ccc(S(=O)(=O)NC(=O)c2ccc(N3CCN(Cc4ccccc4-c4ccc(Cl)cc4)CC3)cc2)cc1S(=O)(=O)C(F)(F)F` [Example 38, N-(4-(4-((4′-chloro(1,1′-biphenyl)-2-yl)methyl)-1-piperazinyl)benzoyl)-4-(((1R)-3-(dimethylamino)-1-((phenylsulfanyl)methyl)propyl)amino)-3-((trifluoromethyl)sulfonyl)benzenesulfonamide], the Ki at Bcl-2 protein and at Bcl-XL protein was not above 1 nM in each case. In addition, the EC50 in data set [1] (setting [3]) was 39.4 nM; in data set [1] (setting [4]) it was 39 nM. In data set [2] (setting [5]), the AUC amounted to 0.665 µM·h. Also, the Cmax in data set [2] (setting [6]) turned out to be 72 nM. Besides, the AUC(0-inf) in data set [2] stood at 0.67 µM·h.
Take `CC(C)N(C)CC[C@H](CSc1ccccc1)Nc1ccc(S(=O)(=O)NC(=O)c2ccc(N3CCN(CC4=C(c5ccc(Cl)cc5)CCC(C)(C)C4)CC3)cc2)cc1S(=O)(=O)C(F)(F)F` [Example 4, N-(4-(4-((2-(4-chlorophenyl)-5,5-dimethylcyclohex-1-en-1-yl)methyl)piperazin-1-yl)benzoyl)-4-(((1R)-3-(isopropyl(methyl)amino)-1-((phenylsulfanyl)methyl)propyl)amino)-3-((trifluoromethyl)sulfonyl)benzenesulfonamide]: the Ki on Bcl-2 protein and at Bcl-XL protein was not above 1 nM each time. Further, the EC50 in data set [1] (setting [3]) was determined as 58.7 nM. For the same compound, the AUC(0-inf) in data set [2] stood at 6.34 µM·h.
For `O=C(NS(=O)(=O)c1ccc(N[C@H](CCN2C3CCC2CC3)CSc2ccccc2)c(S(=O)(=O)C(F)(F)F)c1)c1ccc(N2CCN(CC3=C(c4ccc(Cl)cc4)CCCC3)CC2)cc1` [Example 8, 4-(((1R)-3-(7-azabicyclo[2.2.1]hept-7-yl)-1-((phenylsulfanyl)methyl)propyl)amino)-N-(4-(4-((2-(4-chlorophenyl)cyclohex-1-en-1-yl)methyl)piperazin-1-yl)benzoyl)-3-((trifluoromethyl)sulfonyl)benzenesulfonamide], the Ki at Bcl-2 protein and on Bcl-XL protein was not above 1 nM throughout. The EC50 in data set [1] (setting [3]) came out at 21.2 nM; in data set [1] (setting [7]) it was 21 nM. The AUC in data set [2] (setting [8]) stood at 1.1 µM·h. For the same compound, the Cmax in data set [2] (setting [9]) was 71 nM. Besides, the AUC(0-inf) in data set [2] was determined as 1.1 µM·h.
`O=C(NS(=O)(=O)c1ccc(N[C@H](CCN2C[C@@H]3C[C@H]2CO3)CSc2ccccc2)c(S(=O)(=O)C(F)(F)Cl)c1)c1ccc(N2CCN(CC3=C(c4ccc(Cl)cc4)CCCC3)CC2)cc1` [Example 6, 3-((chloro(difluoro)methyl)sulfonyl)-N-(4-(4-((2-(4-chlorophenyl)cyclohex-1-en-1-yl)methyl)piperazin-1-yl)benzoyl)-4-(((1R)-3-((1S,4S)-2-oxa-5-azabicyclo[2.2.1]hept-5-yl)-1-((phenylsulfanyl)methyl)propyl)amino)benzenesulfonamide]: the Ki on Bcl-2 protein and at Bcl-XL protein was not above 1 nM in each case. Besides, the EC50 is 1 nM in data set [1] (setting [3]) and 10 nM in data set [1] (setting [7]). Besides, in data set [2] (setting [8]), the AUC was 0.913 µM·h. Further, the Cmax in data set [2] (setting [9]) came out at 113 nM. Moreover, in data set [2], the AUC(0-inf) was determined as 0.91 µM·h.
For `O=C(NS(=O)(=O)c1ccc(N[C@H](CCN2CCCC2)CSc2ccccc2)c(S(=O)(=O)C(F)(F)Cl)c1)c1ccc(N2CCN(CC3=C(c4ccc(Cl)cc4)CCCC3)CC2)cc1` [Example 35, 3-((chloro(difluoro)methyl)sulfonyl)-N-(4-(4-((2-(4-chlorophenyl)cyclohex-1-en-1-yl)methyl)piperazin-1-yl)benzoyl)-4-(((1R)-1-((phenylsulfanyl)methyl)-3-(pyrrolidin-1-yl)propyl)amino)benzenesulfonamide], the Ki at Bcl-2 protein and on Bcl-XL protein was not above 1 nM throughout. In data set [1] (setting [3]), the EC50 came out at 7.6 nM. Also, the AUC(0-inf) in data set [2] is 1.26 µM·h.
On to `O=C(NS(=O)(=O)c1ccc(N[C@H](CCN2CC3CC2CO3)CSc2ccccc2)c(S(=O)(=O)C(F)(F)F)c1)c1ccc(N2CCN(CC3=C(c4ccc(Cl)cc4)CCCC3)CC2)cc1` (stereo partly drawn) [Example 9, N-(4-(4-((2-(4-chlorophenyl)cyclohex-1-en-1-yl)methyl)piperazin-1-yl)benzoyl)-4-(((1R)-3-(2-oxa-5-azabicyclo[2.2.1]hept-5-yl)-1-((phenylsulfanyl)methyl)propyl)amino)-3-((trifluoromethyl)sulfonyl)benzenesulfonamide], for which the inhibition constant Ki at Bcl-2 protein and on Bcl-XL protein was not above 1 nM in each case. Moreover, the EC50 was 13.7 nM in data set [1] (setting [3]) and 14 nM in data set [1] (setting [7]). Moreover, the AUC in data set [2] (setting [8]) was 1.88 µM·h. Moreover, the Cmax in data set [2] (setting [9]) came out at 156 nM. The AUC(0-inf) in data set [2] was determined as 1.88 µM·h.
`O=C(NS(=O)(=O)c1ccc(N[C@H](CCN2CCCC2)CSc2ccccc2)c(S(=O)(=O)C(F)(F)F)c1)c1ccc(N2CCN(CC3=C(c4ccc(Cl)cc4)CCCC3)CC2)cc1` [Example 27, N-(4-(4-((2-(4-chlorophenyl)cyclohex-1-en-1-yl)methyl)piperazin-1-yl)benzoyl)-4-(((1R)-1-((phenylsulfanyl)methyl)-3-(pyrrolidin-1-yl)propyl)amino)-3-((trifluoromethyl)sulfonyl)benzenesulfonamide]: the Ki at Bcl-2 protein and on Bcl-XL protein was not above 1 nM in each case. Further, the concentration giving a half-maximal response (EC50) in data set [1] (setting [3]) amounted to 18.5 nM. In addition, the AUC(0-inf) in data set [2] turned out to be 2.08 µM·h.
